Reference: patent US10549052B2, “Nasal delivery device” (SIPNOSE LTD., priority 2012, dated 2020)
Where two headings read alike, the source gives them in different places.

Experiments:
[1] = Micro-PET-CT tissue absorption of F-DOPA, SipNose nasal application versus I/V administration; details: rat
Experimental: The objective of the experiment was to compare nasal application with SipNose device to a systemic application by IV administration of F-DOPA (that corresponds to the drug L-DOPA) by means of brain absorption (namely the target tissue) and systemic absorption (namely non relevant tissues contamination).
• Animals were anesthetized with a Ketamine-Xylazine cocktail. • Animals were treated according to the 2 groups as below: • 1. Systemic administration of F-DOPA by I/V injection of 1 ml. Administration doses were between 17 and 83 μg, and injected radioactivity dose was around 1000 μCi. • 2. Nasal application of F-DOPA by SipNose device application of 13-20 μl. Administration doses were between 1.2 and 2.8 μg, and injected radioactivity doses were around 26 μCi. All I/V administered animals and part of the Nasal applied animals (as will be indicated) were pre-treated with 10 mg/kg Carbidopa (by IP administration) 30 min prior to L-DOPA administration to eliminate peripheral conversion to dopamine. • Animals were subjected to Micro-PET-CT. PET scans were done for 45 min following L-DOPA administration by I/V or Nasal route. • Analysis of F-DOPA absorption in the following tissues was tested: • Brain, Heart, Lungs, liver.

[2] = Dye deposition in the olfactory epithelium following application with the present device; type: in vivo; details: rat, 15 microliter to one nostril with the present device, post mortem (FIG. 31B)
From the text: Methylene Blue solution (as in Example 1) was applied to the rat nose with the present device. 15 microliter was applied to one nostril and immediately after that the animal was sacrificed and the nasal and brain tissue were exposed to follow the dye deposition.

[3] = Experimental: Brain uptake of a compound with low blood-brain barrier (BBB) penetration ^11C-choline, was applied by the device of the present application (refers also as SipNose). 33.2 μCi/5.3 μmol (approx. 0.551 mg) of ^11C-choline was applied by the device of the present application to a 381 gm rat. A 45 min. dynamic PET scan was performed followed by a CT scan.
It should be noted that in the above mentioned examples, the compressed gas is in volumes of about 15 ml and compressed to about 7 bar.
Comparison of brain uptake of a compound with low blood-brain barrier (BBB) penetration, when applied to the nasal cavity with the device of the present application to deposition in the respiratory epithelium in the nasal cavity.
It should be noted that in the above mentioned examples, the compressed gas is in volumes of about 5 ml and compressed to about 4 bar.
Comparison of brain uptake of a compound with low blood-brain barrier (BBB) penetration, when applied with the present device versus intravenous (I/V) injection.
The data shown are the average of three trials for the present device, and the average of two trials for each of the I/V administration and the general nasal administration. The bar heights are relative to the brain concentration of ^11C choline after I/V administration.

[4] = rat, injected intravenously (I/V)
[5] = rat, via the present device (FIG. 41)

N[C@@H](Cc1cc(O)c(O)cc1F)C(=O)O [F-Dopa, F-DOPA]
SipNose nasal application with versus without Carbidopa pre-treatment ([1]; 10 mg/kg Carbidopa IP 30 min prior): same results whether a pre-treatment with Carbidopa was given or not | brain concentrations, SipNose nasal application versus I/V ([1]; 22.5 min post treatment (t50 of the PET scan)): comparable | peripheral uptake compared to brain uptake ([1]; nasal application, heart, lungs, liver): lower peripheral concentrations than the brain F-Dopa concentrations | percentage of absorption in peripheral tissues relative to brain absorption, nasal versus I/V ([1]; heart, lungs, liver): lower in the nasal treated animals than in the I/V treated animals

CN(C)c1ccc2nc3ccc(=[N+](C)C)cc-3sc2c1 [Methylene Blue]
location of dye deposition in the nasal cavity [2]: concentrated at the olfactory epithelium

C[N+](C)(C)CCO [^11C-choline]
location of deposition in the nasal cavity ([3]; live rat, PET-CT scan, present device (FIG. 31A)): concentrated at the olfactory epithelium | brain uptake with the present device relative to I/V application ([3]; rat, FIG. 38B versus FIG. 37B): more than 6 times | uptake to the brain ([3]; rat, I/V injection (FIG. 39)): less than 0.2 % of the administered dose | uptake to the brain ([3]; rat, SipNose nasal application, about 15 ml gas at about 7 bar, increasing gradually thereafter, 45 min dynamic PET scan): 0.6 % ID/ml | uptake to the brain ([3]; rat, SipNose nasal application, about 15 ml gas at about 7 bar, very shortly following administration): about 0.5 % ID/ml | brain uptake as share of the total drug administrated ([3]; rat, SipNose nasal application, corresponds to the % ID/ml values): ~1.2% | uptake entering the brain ([3]; rat, applied with the present device (FIG. 38B)): more than 0.5 % ID/ml | locations of uptake ([3]; rat, applied with the present device (SipNose)): greatest in the olfactory epithelium and least in the lungs | locations of uptake ([3]; rat, applied with the present device (SipNose), listed as 11C choline): mainly to the olfactory epithelium | brain concentration relative to I/V administration ([3]; rat, general nasal application, average of two trials (FIG. 40)): the same or slightly more | locations of uptake [3, 4]: mostly to the liver | uptake to the brain [3, 4]: about 0.1 % ID/ml | uptake of the radioactivity in the brain ([3]; rat, nasal application tuned to respiratory epithelium (about 5 ml, about 4 bar), no olfactory deposition, 45 minutes after activation): less than 0.1% | uptake of the radioactivity in the pharynx ([3]; rat, nasal application tuned to respiratory epithelium (about 5 ml, about 4 bar), less than a minute after activation): more than 0.4% | brain concentration relative to I/V administration ([3]; rat, present SipNose device, average of three trials (FIG. 40)): more than five times as great | uptake to the brain ([3]; rat, present device (FIG. 39)): more than 1 % of the administered dose | net uptake to non-olfactory brain tissues [3, 5]: about 2.5 μg | total uptake to the brain [3, 5]: ~6 µg | uptake to the olfactory bulbs [3, 5]: about 3 μg
